Laboratory results: patent publication US10172769B2, “Method for whitening teeth” (DENT-WHITE CO., LTD., priority 2015, dated 2019)

What was measured:
[1] = Degree of permeation of hydrogen peroxide through transwell membrane according to anion irradiation; details: 10 minutes, room temperature, composition with 15% by weight hydrogen peroxide and 25 nM potassium triphosphate
Procedure: Two identical transwell membranes were prepared by the above-described process, and one of them was irradiated with anions at room temperature for 10 minutes using an anion irradiator (trade name: Bluen: BN-108), and the other one was allowed to stand at room temperature for 10 minutes without irradiating anions.
Thereafter, the concentration of hydrogen peroxide escaped from each transwell membrane to the outside was titrated to calculate the ratio of hydrogen peroxide that passed through the membrane.

[2] = cited from earlier work

Row | ratio of hydrogen peroxide escaped from the transwell membrane to the outside ([1]; anion-irradiated) | ratio of hydrogen peroxide escaped from the transwell membrane to the outside ([1]; non-irradiated) | Compound | pKa [2]
1 | 72 % by weight | 51 % by weight | OO [hydrogen peroxide] | 
2 |  |  | O=P([O-])([O-])OP(=O)([O-])OP(=O)([O-])[O-].[K+].[K+].[K+].[K+].[K+] [potassium triphosphate] | 12.38
